Experiment [1] concerns Streptococcus sp. 'group A'. The experiment is described as follows: Streptococcus pyogenes SK(-)GAS viability under kanamycin – luminescence, BacTiterGlo, confirmation, counter-screen for streptokinase expression inhibitor project, dose response (AID 1900). Format: functional, organism-based. In general terms: Counterscreens check selectivity or assay interference.
Experiment [2] concerns the target T1, Replicative DNA helicase DnaB (Mycobacterium tuberculosis, UniProt P9WMR3).
T1 sequence (P9WMR3 whole entry): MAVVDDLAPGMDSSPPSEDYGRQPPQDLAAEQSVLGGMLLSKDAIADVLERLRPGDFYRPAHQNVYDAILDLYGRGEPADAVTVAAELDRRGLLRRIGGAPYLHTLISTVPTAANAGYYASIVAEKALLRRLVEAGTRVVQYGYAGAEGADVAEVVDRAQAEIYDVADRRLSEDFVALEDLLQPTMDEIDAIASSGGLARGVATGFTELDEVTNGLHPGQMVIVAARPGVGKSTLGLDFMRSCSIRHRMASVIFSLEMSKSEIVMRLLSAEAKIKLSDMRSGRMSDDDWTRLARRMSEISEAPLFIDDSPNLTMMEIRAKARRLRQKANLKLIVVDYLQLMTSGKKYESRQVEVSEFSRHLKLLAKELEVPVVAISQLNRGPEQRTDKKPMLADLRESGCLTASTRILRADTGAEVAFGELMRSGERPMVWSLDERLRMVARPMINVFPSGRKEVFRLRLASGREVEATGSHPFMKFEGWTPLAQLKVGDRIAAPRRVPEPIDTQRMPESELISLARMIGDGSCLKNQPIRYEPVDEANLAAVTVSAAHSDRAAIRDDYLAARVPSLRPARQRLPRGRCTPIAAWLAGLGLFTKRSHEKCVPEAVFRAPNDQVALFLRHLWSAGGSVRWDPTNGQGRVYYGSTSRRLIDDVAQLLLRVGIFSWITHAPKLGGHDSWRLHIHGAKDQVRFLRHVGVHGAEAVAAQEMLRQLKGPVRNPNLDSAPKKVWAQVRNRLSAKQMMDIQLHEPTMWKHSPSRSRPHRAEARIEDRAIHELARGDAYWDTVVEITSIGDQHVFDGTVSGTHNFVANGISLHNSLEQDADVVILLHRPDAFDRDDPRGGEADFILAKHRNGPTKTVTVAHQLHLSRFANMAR
Kind of experiment: DnaB intein splicing inhibitors, dose response, biochemical, cell-free fluorescence (AID 449749). The class given is functional.

Experiment [3] in a line: Trypanosoma cruzi growth suppression in host cells – NIH3T3 host cells, beta-gal luminescence, confirmation (AID 2044).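 Further: intracellular parasites grown in NIH/3T3 mouse fibroblasts as host cells; luminescent beta-galactosidase reporter signal from transgenic T. cruzi replicating inside host cells; inhibitors lower the luminescence signal.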 The class given is functional, cell-based.
In experiment [4] the target is T2, Histone-lysine N-methyltransferase NSD2 (Homo sapiens, UniProt O96028).
T2 sequence (O96028 whole entry): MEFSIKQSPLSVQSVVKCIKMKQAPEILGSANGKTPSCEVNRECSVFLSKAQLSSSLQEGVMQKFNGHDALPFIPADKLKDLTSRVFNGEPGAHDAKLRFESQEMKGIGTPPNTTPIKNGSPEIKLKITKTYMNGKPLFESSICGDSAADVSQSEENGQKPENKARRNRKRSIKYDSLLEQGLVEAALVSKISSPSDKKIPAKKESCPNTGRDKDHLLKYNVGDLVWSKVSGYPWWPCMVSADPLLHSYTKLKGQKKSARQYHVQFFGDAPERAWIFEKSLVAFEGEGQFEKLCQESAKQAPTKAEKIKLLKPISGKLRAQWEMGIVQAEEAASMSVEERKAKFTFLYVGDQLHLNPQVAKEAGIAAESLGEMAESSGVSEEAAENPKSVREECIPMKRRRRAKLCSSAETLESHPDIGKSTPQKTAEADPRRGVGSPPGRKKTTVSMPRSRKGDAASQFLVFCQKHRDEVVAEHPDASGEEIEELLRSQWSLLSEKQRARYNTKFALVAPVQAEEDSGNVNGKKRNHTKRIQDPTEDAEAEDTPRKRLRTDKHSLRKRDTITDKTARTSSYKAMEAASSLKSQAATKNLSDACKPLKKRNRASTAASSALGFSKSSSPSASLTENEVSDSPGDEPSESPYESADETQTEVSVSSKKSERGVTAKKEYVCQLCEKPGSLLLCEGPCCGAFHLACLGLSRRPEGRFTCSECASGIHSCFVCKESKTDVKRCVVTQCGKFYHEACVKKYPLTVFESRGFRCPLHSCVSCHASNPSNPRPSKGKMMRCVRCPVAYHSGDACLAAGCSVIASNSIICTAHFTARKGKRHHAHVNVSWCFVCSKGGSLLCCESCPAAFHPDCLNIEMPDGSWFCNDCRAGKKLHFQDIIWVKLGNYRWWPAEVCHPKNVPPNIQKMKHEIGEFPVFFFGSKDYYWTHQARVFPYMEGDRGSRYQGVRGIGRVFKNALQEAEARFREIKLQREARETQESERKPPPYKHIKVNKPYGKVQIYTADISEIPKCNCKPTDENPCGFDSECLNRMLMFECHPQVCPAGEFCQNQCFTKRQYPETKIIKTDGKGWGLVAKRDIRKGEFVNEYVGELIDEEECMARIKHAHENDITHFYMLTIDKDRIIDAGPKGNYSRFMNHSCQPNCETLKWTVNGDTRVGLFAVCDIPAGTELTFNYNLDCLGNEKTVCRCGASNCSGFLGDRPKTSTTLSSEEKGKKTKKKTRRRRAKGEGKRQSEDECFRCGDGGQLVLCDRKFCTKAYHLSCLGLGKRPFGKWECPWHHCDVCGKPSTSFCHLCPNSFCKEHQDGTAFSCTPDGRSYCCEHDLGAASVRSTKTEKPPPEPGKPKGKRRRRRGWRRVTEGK
Format: biochemical.

In experiment [5] the target is DNA dC->dU-editing enzyme APOBEC-3G (Homo sapiens, UniProt Q9HC16). Kind of experiment: Dose Response confirmation of small molecule APOBEC3G DNA Deaminase Inhibitors via a fluorescence-based single-stranded DNA deaminase assay. [Related pubchem assays (depositor defined):AID493012, AID493028]. Format: functional.
Sequence of DNA dC->dU-editing enzyme APOBEC-3G (Q9HC16 whole entry): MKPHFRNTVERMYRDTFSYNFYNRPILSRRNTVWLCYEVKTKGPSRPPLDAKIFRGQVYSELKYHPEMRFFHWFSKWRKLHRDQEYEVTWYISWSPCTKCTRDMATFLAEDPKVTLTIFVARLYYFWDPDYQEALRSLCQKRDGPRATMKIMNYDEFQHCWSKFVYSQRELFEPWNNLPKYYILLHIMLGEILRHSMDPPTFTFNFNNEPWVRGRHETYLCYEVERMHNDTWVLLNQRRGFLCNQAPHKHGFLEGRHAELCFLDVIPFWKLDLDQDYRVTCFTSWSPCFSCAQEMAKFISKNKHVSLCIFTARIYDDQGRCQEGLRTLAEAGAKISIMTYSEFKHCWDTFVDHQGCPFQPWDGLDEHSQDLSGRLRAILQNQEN
Experiment [6] deals with T3, Zinc finger protein mex-5 (Caenorhabditis elegans, UniProt Q9XUB2).
T3 sequence (Q9XUB2 whole entry): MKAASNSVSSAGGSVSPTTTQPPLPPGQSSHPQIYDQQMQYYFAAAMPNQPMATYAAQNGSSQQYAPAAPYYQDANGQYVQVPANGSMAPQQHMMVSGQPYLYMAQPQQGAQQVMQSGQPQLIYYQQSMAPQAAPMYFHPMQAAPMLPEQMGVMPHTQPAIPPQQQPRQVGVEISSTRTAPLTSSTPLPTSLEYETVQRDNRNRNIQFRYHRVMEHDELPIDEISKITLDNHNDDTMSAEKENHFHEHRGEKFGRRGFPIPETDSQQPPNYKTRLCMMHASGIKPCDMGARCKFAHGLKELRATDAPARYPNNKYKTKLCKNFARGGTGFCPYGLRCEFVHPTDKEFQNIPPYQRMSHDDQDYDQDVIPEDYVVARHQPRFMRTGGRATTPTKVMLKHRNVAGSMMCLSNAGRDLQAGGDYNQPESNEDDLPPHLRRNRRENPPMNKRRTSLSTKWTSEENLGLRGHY
The experiment is described as follows: potency of MEX-5 RNA-binding blockers – biochemical, C. elegans, fluorescence polarization, dose response (AID 1960). (In fluorescence polarisation assays a small probe gives low polarisation when free and higher when bound to something large.)

Experiment [7] has as its target Induced myeloid leukemia cell differentiation protein Mcl-1 (Homo sapiens, UniProt Q07820). Format: functional.

Activity calls are given as the source filed them.

Sequence of Induced myeloid leukemia cell differentiation protein Mcl-1 (Q07820 whole entry): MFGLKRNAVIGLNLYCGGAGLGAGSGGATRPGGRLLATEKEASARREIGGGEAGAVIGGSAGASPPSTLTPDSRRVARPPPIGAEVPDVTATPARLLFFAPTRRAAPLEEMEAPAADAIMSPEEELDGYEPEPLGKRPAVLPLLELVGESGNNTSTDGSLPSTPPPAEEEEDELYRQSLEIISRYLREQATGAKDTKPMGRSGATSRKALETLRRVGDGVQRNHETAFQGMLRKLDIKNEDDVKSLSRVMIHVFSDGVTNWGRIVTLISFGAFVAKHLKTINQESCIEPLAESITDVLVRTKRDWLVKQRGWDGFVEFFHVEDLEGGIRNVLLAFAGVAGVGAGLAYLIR

As a reminder, the EC50 is the concentration needed to bring the measured effect to its halfway point. In general, AC50 refers to the concentration at which the activity in the assay is half-maximal. For the molecule `Cc1ccc(NC2=C/C(=N\S(=O)(=O)c3cccs3)c3ccccc3C2=O)c(C)c1`, the EC50 is 2990 nM (active) in experiment [1] and 719 nM (active) in experiment [3]. For the same molecule, the AC50 in experiment [2] is 339 nM (active).
The term IC50 denotes the point on the concentration scale where inhibition reaches its midpoint. Consider `Oc1ccc(-c2cn3c(n2)SCC3)cc1O`, for which, in experiment [4], the AC50 was 2950 nM (active). The IC50 was 12600 nM (active) in experiment [5] and 2260 nM (active) in experiment [7]. Further, in experiment [6], the EC50 is 1770 nM (active).
In the case of `COc1ccc(/C=N/NC(=O)c2nn(-c3ccccc3)c(=O)c3c(N)scc23)cc1`, in experiment [4], the AC50 is > 20000 nM (inactive).
Consider `CC(=O)N(C1=C(Cl)C(=O)c2ccccc2C1=O)C1CCCCC1`, for which the IC50 in experiment [5] is 7680 nM (active); in experiment [7] it was 14500 nM (active). In addition, the EC50 in experiment [6] is 8180 nM (active); in experiment [1], 6920 nM (active); in experiment [3], 1830 nM (active). Further, the AC50 in experiment [2] is 2980 nM (active).

For the origin of these results see ChEMBL document CHEMBL1201862, “PubChem BioAssay data set” (2004).
